In one data set the test system is rice blast. Nature of the data set: microbe, parasite or virus in culture. Format: cell-based. The note with it: Pyricularia oryzae, read-out: inhibition rate against rice blast, 25 ppm, in vitro.
A further data set relates to cucumber downy mildew. Nature of the data set: Protectant activity in vivo (whole plant), cucumber downy mildew. Particulars: for control effect against cucumber downy mildew(%): protectant activity. Here is the method:
(§1) The method is as followed: The whole plant is used in this test. The compound is dissolved in a proper solvent to get mother solution. The proper solvent is selected from acetone, methanol, DMF and so on according to their dissolving capability to the sample. […] The testing solution is sprayed to the host plant by a special plant sprayer. The plant is inoculated with fungus after 24 hours. According to the infecting characteristic of fungus, the plant is stored in a humidity chamber and then transferred into greenhouse after infection is finished. And the other plants are placed in greenhouse directly.

The next data set deals with carmine spider mite. Nature of the data set: Bioactivity test against carmine spider mite (airbrush spray). Type of data set: in vivo. Particulars: after 72 hrs; for mortality at 600 ppm: Tetranychus cinnabarinus, 72 h, read-out: control against carmine spider mite (mortality). Here is the method: (§2) Compounds were dissolved in mixed solvent (acetone:methanol=1:1), and diluted to required concentration with water containing 0.1% of tween 80.
(§3) Diamond back moth, armyworm, peach aphid and carmine spider mite were used as targets and the method of spraying by airbrush was used for determination of insecticidal bioassays.
The method: shoots with two true leaves in pot were taken, the healthy adults of carmine spider mite were inoculated to the leaves. The adults were counted and then sprayed with airbrush at the pressure of 0.7 kg/cm^2 and at dose of 0.5 ml. 3 replicates were set for each treatment. And then they were maintained in standard observation room. Scores were conducted and mortalities were calculated after 72 hrs.

Another data set deals with cucumber gray mold. Nature of the data set: Fungicidal activity in vitro (96-cell culture board), cucumber gray mold. Format: cell-based. Particulars: read-out: inhibition rate against cucumber gray mold.
The test system of another data set is diamond back moth. The data set can be described thus: Bioactivity test against diamond back moth (airbrush spray). Format: in vivo. Particulars: for control against diamond back moth (mortality): 600 ppm, after 72 h. On the procedure: as §2, §3
The method of spraying by airbrush: The cabbage leaves were made into plates of 2 cm diameter by use of punch. A test solution (0.5 ml) was sprayed by airbrush at the pressure of 0.7 kg/cm^2 to both sides of every plate. 10 Second instar larvae were put into the petri-dishes after the leaf disc air-dried and 3 replicates were set for each treatment. Then the insects were maintained in observation room (25° C., 60˜70% R.H.). Scores were conducted and mortalities were calculated after 72 h.

A further data set has as its system corn rust. The data set can be described thus: Protectant activity in vivo (whole plant), corn rust. The note with it: 1.6 ppm. Here is the method: as §1
For a further data set, the system named is wheat powdery mildew. Nature of the data set: Protectant activity in vivo (whole plant), wheat powdery mildew. Particulars: protectant activity. Here is the method:
as §1

Data set [1] deals with Green peach aphids (Myzus Persicae Sulzer). The data set can be described thus: Bioactivity test against green peach aphid (airbrush foliar spray). Format: in vivo. Here is the method:
as §2, §3
Method: Filter papers were put in culture dishes (Diameter=6 cm), and water was dripped on filter papers for preserving moisture. Green peach aphids (Myzus Persicae Sulzer) were maintained on cabbage. Leaves (Diameter=3 cm) of approximately 15-30 aphids were put in the culture dishes. Bioactivity tests were used the method of Airbrush Foliar Spray, pressure=10 psi (0.7 kg/cm2), spray volume=0.5 mL. The studies were conducted at […] 25±1 C in incubator cabinets with 60±5% RH. Survey the survival aphids after 48 h and calculate the death rates.

Consider 5 compounds from US9682962B2, “Pyrazolyl pyrimidinamine compound and application thereof” (SHENYANG SINOCHEM AGROCHEMICALS R&D CO., LTD., priority 2013, dated 2017).

A word on the inhibition: it is the drop in the measured response relative to a control, in per cent. By mortality is commonly meant the percentage killed. Broadly, the melting point is the temperature, or range, at which the solid turns liquid.

As to `Cc1nc(C)c(Cl)c(NCCc2cnn(-c3ccc(Cl)cc3Cl)c2)n1` [Compound 1373], the inhibition at 25 ppm with rice blast was > 80%. The “control effect against cucumber downy mildew(%)” value in the data set on cucumber downy mildew (12.5 mg/L), with cucumber downy mildew (25 mg/L), with cucumber downy mildew (50 mg/L), with cucumber downy mildew (100 mg/L) and in the data set with cucumber downy mildew (400 mg/L) was 100% in each case. In addition, the figures for the “protectant activity against cucumber downy mildew in vivo” value with cucumber downy mildew (3.125 ppm) and with cucumber downy mildew (6.25 ppm) were 85% and 95%, respectively. Further, in the data set with carmine spider mite, the mortality at 600 ppm is > 80%.
Take `CCc1ncnc(NCCc2cnn(-c3ccc(Cl)cc3)c2)c1Cl` [Compound 537]: the “control effect against cucumber downy mildew(%)” value in the data set on cucumber downy mildew (12.5 mg/L), in the data set with cucumber downy mildew (25 mg/L), in the data set with cucumber downy mildew (50 mg/L), in the data set on cucumber downy mildew (100 mg/L) and in the data set with cucumber downy mildew (400 mg/L) was 100% each time. Besides, the “protectant activity against cucumber downy mildew in vivo” value in the data set with cucumber downy mildew (6.25 ppm) came to 98%. The inhibition at 25 ppm in the data set on cucumber gray mold was > 80%.
On to `CCc1ncnc(NCCc2cnn(-c3ccc(Cl)cc3)c2)c1Cl.Cl` [Compound 10932], for which the “Insecticidal activity against diamond back moth (%)” value with diamond back moth (10 mg/L) worked out at 25%; in the data set with diamond back moth (100 mg/L), 50%; with diamond back moth (600 mg/L), 100%. Further, in the data set on diamond back moth, the “control against diamond back moth (mortality)” value was 100%. In the data set on rice blast, the inhibition at 25 ppm was > 80%. Also, the mortality at 600 ppm in the data set on carmine spider mite is > 80%.
As for `CCc1ncnc(NCCc2cnn(Cc3ccc(Cl)cc3)c2)c1Cl` [Compound 5657], the melting point stood at 109.9 °C. Further, the inhibition at 25 ppm in the data set on rice blast is > 80%. The inhibition at 25 ppm with cucumber gray mold was > 80%.
Turning to `FC(F)c1ncnc(NCCc2cnn(-c3ccc(Cl)cc3Cl)c2)c1Cl` [Compound 817], the entries for the “Insecticidal activity against diamond back moth (%)” value in the data set on diamond back moth (10 mg/L), with diamond back moth (100 mg/L) and with diamond back moth (600 mg/L) were 21%, 70% and 100%, respectively. In addition, the “control against diamond back moth (mortality)” value in the data set on diamond back moth came to 100%. The “protectant activity against corn rust in vivo” value with corn rust is 70%. Besides, the “control effect against wheat powdery mildew (%)” value in the data set with wheat powdery mildew (6.25 mg/L), with wheat powdery mildew (25 mg/L), in the data set with wheat powdery mildew (100 mg/L) and in the data set on wheat powdery mildew (400 mg/L) was 100% each time. Moreover, the “control against carmine spider mite (mortality)” value in the data set on carmine spider mite (10 ppm) was 72%. Also, the “Insecticidal activity against peach aphid (%)” value in data set [1] (100 mg/L) and in data set [1] (600 mg/L) was 100% in each case.
